Experimental findings from patent US7498353B2, “Heterocyclic anti-viral compounds comprising metabolizable moieties and their uses” (priority 2005, dated 2009) are described below.

Data set [1] in a line: Pharmacokinetic studies in portal/jugular vein cannulated rats after oral administration. In kind it is in vivo, male Spraque-Dawley rats. As to the method: Pharamcokinetic studies were conducted in rats containing surgically implanted cannula in the portal and jugular veins. Blood samples were taken simultaneously from both cannula at various times after oral administration of the compounds. In the portal vein, the prodrugs are detected and, in some cases, the active compound, A-B—C—NHCOCHX2, has also been detected. The presence of active compound in the portal vein samples has been attributed to metabolism of the prodrug in transit through the gut wall. […] In the jugular samples, many, but not all, of the prodrugs have been detected in systemic circulation, depending on the hepatic extraction ratio of the prodrug.
Compounds were dissolved in a mixture of TPGS:PEG:PG (35%:60%:5%) and diluted with saline for oral administration. Typically, 6.5 mg of compound was dissolved in 1 ml of the organic mixture and added to 5.5 ml of saline. Animals were dosed with 5 ml/kg of this mixture to give a typical dose of 5 mg/kg. All animal studies were conducted in male Spraque-Dawley rats and the animals were fasted overnight prior to dose administration. Surgeries (to implant blood sampling cannula) were conducted at least two days prior to the study. Blood samples (100 μl) were collected using sodium heparin as anticoagulant and added to 300 μl of a mixture of acetate buffer (100 mM, pH=6.5):acetonitrile:ethanol:DMSO (2:1:1:2 v/v). Samples were centrifuged and the supernatant was analyzed by LC/MS/MS using the procedures outlined above. Standards were prepared similarly using fresh rat blood from naive animals.
No. 66 and Cpd. No. 64 (Table 3). […] Because the portal blood flows directly to the liver, the intact active parent compound may exert an anti-viral effect in the liver.

Data set [2] relates to HCV NS5A protein in 9-13 replicon cells. The data set is described as follows: Quantitative Western blot replicon assay (HEPC_REPLICON-ICWESTERN). Conditions: Hepatitis C virus; 9-13 replicon cells, 50% reduction in NS5A protein; read-out: HEPC_REPLICON-ICWESTERN Result Value (IC50). In kind it is cell-based, Hepatitis C virus (HCV). The protocol:
Alternatively, the inhibitory activity of the metabolically active agents of the prodrugs can be confirmed using a quantitative Western immunoblot assay utilizing antibodies specific for HCV non-structural proteins, such as NS3, NS4A NS5A and NS5B. In one embodiment of this assay, replicon cells are treated with varying concentrations of test prodrug to determine the concentration of the metabolically active agent of the test prodrug that yields a 50% reduction in the amount of a non-structural protein produced as compared to a control sample (IC50). A single non-structural protein may be quantified or multiple non-structural proteins may be quantified. Antibodies suitable for carrying out such immunoblot assays are available commercially (e.g., from BIODESIGN International, Saco, Me.).
Certain prodrugs of the invention, which may inhibit HCV translation or replication prior to metablism and/or are metabolized into active agents, were also tested for their ability to inhibit HCV replication using a quantitative Western blot analysis with antibodies specific for the HCV NS5A or other non-structural proteins. Actively dividing 9-13 replicon cells were seeded into 6-well plates at a density of 1×10^5 cells/well in a volume of 2 ml/well and incubated at 37° C. and 5% CO2 for 24 hours. Various concentrations of test prodrugs (in a volume of 10 ul) were added to the wells and the cells incubated for another 48 hours. Protein samples were prepared from the cultured cells, resolved on a SDS-PAGE gel and transferred to a nitrocellulose membrane. The membrane was blocked with 5% non-fat milk in PBS for 1 hour at room temperature. Primary antibody (anti NS5A antibody; BIODESIGN International, Saco, Me.) incubation was performed for 1 hour at room temperature, after which the membrane was washed 3 times (for 15 min per time) with PBST (PBS plus 0.1% Tween 20). Horseradish peroxidase conjugated secondary antibody incubation was performed for 1 hour at room temperature and the membrane was washed 3 times (for 15 min per time) with PBST. The membrane was then soaked in substrate solution (Pierce) and exposed to a film or quantified using an imager. In this assay, the amount of test prodrug that is believed to be transformed into an active agent under the given conditions that yielded a 50% reduction in the amount of NS5A protein translated as compared to a control sample (IC50) was determined.

Data set [3] concerns HCV replicon in 5-2 Luc replicon-comprising cells. Put plainly: HCV replicon assay, luciferase readout (HEPC_REPLICON-LUC). In kind it is cell-based. Conditions: Hepatitis C virus; 5-2 Luc replicon cells, 50% reduction in luciferase emission; read-out: HEPC_REPLICON-LUC Result Value (IC50). The text has this: In one embodiment, the inhibitory activity of the metabolically active agent of the prodrug can be confirmed in a replicon assay that assesses the ability of a test compound to block or inhibit HCV replication in replicon cells. One example of a suitable replicon assay is the liver cell-line Huh 7-based replicon assay described in Lohmann et al., 1999, Science 285:110-113. A specific example of this replicon assay which utilizes luciferase translation is provided in the Examples Section. In one embodiment of this assay, the amount of test prodrug that yields a 50% reduction in translation as compared to a control cell (IC50) may be determined.
The inhibitory activity of certain prodrugs of the invention, which may inhibit HCV translation or replication prior to metablism and/or are metabolized into active agents, was confirmed using an HCV replicon assay. The HCV replicon can include such features as the HCV 5′ untranslated region including the HCV IRES, the HCV 3′ untranslated region, selected HCV genes encoding HCV polypeptides, selectable markers, and a reporter gene such as luciferase, GFP, etc. In the assay, actively dividing 5-2 Luc replicon-comprising cells (obtained from Ralf Bartenschlager; see Lohmann et al., 1999, Science 285:110-113) were seeded at a density of between about 5,000 and 7,500 cells/well onto 96 well plates (about 90 μl of cells per well) and incubated at 37° C. and 5% CO2 for 24 hours. Then, the test prodrug (in a volume of about 10 μl) was added to the wells at various concentrations and the cells were incubated for an additional 24-48 hours before luciferase assay. The media was aspirated from each well and Bright-Glo (Promega, Madison, Wis.) luciferase assay reagents were added to each well according to the manufacturer's instructions. Briefly, the Bright-Glo reagent was diluted 1:1 with PBS and 100 μl of diluted reagent was added to each well. After 5 min of incubation at room temperature, luciferin emission was quantified with a luminometer. In this assay, the amount of test prodrug that yielded a 50% reduction in luciferase emission (IC50) was determined. This IC50 value may represent the antiviral activity of the prodrug itself, the activity of prodrug transformed into its active metabolized form, or a combination of the two.

As a reminder, the AUC is the area under the concentration-time curve, a measure of exposure. In general, IC50 refers to the midpoint of a concentration-inhibition curve. On to `N[C@H](C(=O)NCCN(C(=O)C(Cl)Cl)c1cccc(-c2cc(-c3c(Cl)cccc3Cl)no2)c1)c1ccccc1` [Cpd. No. 18, (S)-N-(2-(2-Amino-2-phenylacetamido)ethyl)-2,2-dichloro-N-(3-(3-(2,6-dichlorophenyl)isoxazol-5-yl)phenyl)acetamide], for which the AUC in data set [1] (male, Sprague-Dawley, rat, portal vein blood, 5 mg/kg oral dose of prodrug) came out at 627 ng·h/mL. For the same compound, in data set [2], the IC50 is > 20000 nM.

Consider `CCC(C)C(N)C(=O)NC(C(=O)CCN(C(=O)C(Cl)Cl)c1ccnc(-c2cc(-c3c(Cl)cccc3Cl)no2)c1)C(C)C` (stereo not shown) [Cpd. No. 52, 2-Amino-N-(6-(2,2-dichloro-N-(2-(3-(2,6-dichlorophenyl)isoxazol-5-yl)pyridin-4-yl)acetamido)-2-methyl-4-oxohexan-3-yl)-3-methylpentanamide], for which the IC50 in data set [3] and in data set [2] was < 1000 nM each time.

For the compound `CC(C)C(N)C(=O)NC(C(=O)CCN(C(=O)C(Cl)Cl)c1ccnc(-c2cc(-c3c(Cl)cccc3Cl)no2)c1)C(C)C` (stereo not shown) [Cpd. No. 48, 2-Amino-N-(6-(2,2-dichloro-N-(2-(3-(2,6-dichlorophenyl)isoxazol-5-yl)pyridin-4-yl)acetamido)-2-methyl-4-oxohexan-3-yl)-3-methylbutanamide], the IC50 in data set [3] and in data set [2] was < 1000 nM each time.

As for `COCN(C(=O)C(Cl)Cl)c1ccnc(-c2cc(-c3c(Cl)cccc3Cl)no2)c1` [Cpd. No. 7, 2,2-Dichloro-N-(2-(3-(2,6-dichlorophenyl)isoxazol-5-yl)pyridin-4-yl)-N-(methoxymethyl)acetamide], the IC50 in data set [3] was 1000 to 20000 nM; in data set [2], < 1000 nM.

Consider `CC(C)[C@@H](NC(=O)OCN(C(=O)C(Cl)Cl)c1ccnc(-c2cc(-c3c(Cl)cccc3Cl)no2)c1)C(=O)OC(C)(C)C` [Cpd. No. 58, (R)-tert-Butyl 2-(((2,2-Dichloro-N-(2-(3-(2,6-dichlorophenyl)isoxazol-5-yl)pyridin-4-yl)acetamido)methoxy)carbonylamino)-3-methylbutanoate], for which the IC50 was > 20000 nM in data set [3] and 1000 to 20000 nM in data set [2].

`NCC(=O)CCN(C(=O)C(Cl)Cl)c1ccnc(-c2cc(-c3c(Cl)cccc3Cl)no2)c1` [Cpd. No. 60, N-(4-Amino-3-oxobutyl)-2,2-dichloro-N-(2-(3-(2,6-dichlorophenyl)isoxazol-5-yl)pyridin-4-yl)acetamide]: the IC50 in data set [3] is < 1000 nM; in data set [2], 1000 to 20000 nM.

On to `CC(C)C(NC(=O)CNC(=O)OC(C)(C)C)C(=O)CCN(C(=O)C(Cl)Cl)c1ccnc(-c2cc(-c3c(Cl)cccc3Cl)no2)c1` (stereo not shown) [Cpd. No. 49, tert-Butyl 2-(6-(2,2-Dichloro-N-(2-(3-(2,6-dichlorophenyl)isoxazol-5-yl)pyridin-4-yl)acetamido)-2-methyl-4-oxohexan-3-ylamino)-2-oxoethylcarbamate], for which the IC50 in data set [3] and in data set [2] was < 1000 nM in each case.

On to `O=C(Nc1ccnc(-c2cc(-c3c(Cl)cccc3Cl)no2)c1)C(Cl)Cl` [Cpd. No. 64], for which, in data set [1] (oral, portal vein), the “Active parent compound concentrations versus dose” value is listed as “increase in a linear fashion with dose”. Moreover, the “Absorption and hydrolysis of the orally administered parent compound” value in data set [1] (oral, portal vein plasma) was “well absorbed but is extensively hydrolyzed to the inactive metabolite”.

On to `CC(C)OC(=O)OCN(C(=O)C(Cl)Cl)c1ccnc(-c2cc(-c3c(Cl)cccc3Cl)no2)c1` [Cpd. No. 57, (2,2-Dichloro-N-(2-(3-(2,6-dichlorophenyl)isoxazol-5-yl)pyridin-4-yl)acetamido)methyl Isopropyl Carbonate], for which the half-inhibitory concentration (IC50) in data set [3] and in data set [2] was 1000 to 20000 nM throughout.

Consider `CCC(C)C(NC(=O)OC(C)(C)C)C(=O)NC(C(=O)CCN(C(=O)C(Cl)Cl)c1ccnc(-c2cc(-c3c(Cl)cccc3Cl)no2)c1)C(C)C` (stereo not shown) [Cpd. No. 51, tert-Butyl 1-(6-(2,2-Dichloro-N-(2-(3-(2,6-dichlorophenyl)isoxazol-5-yl)pyridin-4-yl)acetamido)-2-methyl-4-oxohexan-3-ylamino)-3-methyl-1-oxopentan-2-ylcarbamate], for which the IC50 in data set [3] and in data set [2] was < 1000 nM in each case.

For the compound `CC(C)C(NC(=O)CN)C(=O)CCN(C(=O)C(Cl)Cl)c1ccnc(-c2cc(-c3c(Cl)cccc3Cl)no2)c1` (stereo not shown) [Cpd. No. 50, N-(4-(2-Aminoacetamido)-5-methyl-3-oxohexyl)-2,2-dichloro-N-(2-(3-(2,6-dichlorophenyl)isoxazol-5-yl)pyridin-4-yl)acetamide], the IC50 in data set [3] and in data set [2] was < 1000 nM each time.

For `CC(C)C(NC(=O)C1CC(O)CN1C(=O)OC(C)(C)C)C(=O)CCN(C(=O)C(Cl)Cl)c1ccnc(-c2cc(-c3c(Cl)cccc3Cl)no2)c1` (stereo not shown) [Cpd. No. 53, tert-Butyl 2-(6-(2,2-Dichloro-N-(2-(3-(2,6-dichlorophenyl)isoxazol-5-yl)pyridin-4-yl)acetamido)-2-methyl-4-oxohexan-3-ylcarbamoyl)-4-hydroxypyrrolidine-1-carboxylate], the IC50 in data set [3] and in data set [2] was < 1000 nM each time.

In the case of `CCC(C)C(N)C(=O)CCN(C(=O)C(Cl)Cl)c1ccnc(-c2cc(-c3c(Cl)cccc3Cl)no2)c1` (stereo not shown) [Cpd. No. 59, N-(4-Amino-5-methyl-3-oxoheptyl)-2,2-dichloro-N-(2-(3-(2,6-dichlorophenyl)isoxazol-5-yl)pyridin-4-yl)acetamide], the IC50 in data set [3] and in data set [2] was < 1000 nM in each case.

Take `NC(CCC(=O)CCN(C(=O)C(Cl)Cl)c1ccnc(-c2cc(-c3c(Cl)cccc3Cl)no2)c1)C(=O)O` (stereo not shown) [Cpd. No. 5, 2-Amino-7-(2,2-dichloro-N-(2-(3-(2,6-dichlorophenyl)isoxazol-5-yl)pyridin-4-yl)acetamido)-5-oxoheptanoic acid]: the IC50 in data set [3] and in data set [2] was < 1000 nM in each case.
